One experiment deals with T1, ATM (Homo sapiens, UniProt Q13315).
T1 construct: detecting phosphorylation of Chk2 in a human non-small cell lung cancer cell line NCI-H460 (ATCC company); host or cells: NCI-H460 human non-small cell lung cancer cells
Description: ATM inhibition test (phosphorylation of Chk2 generated by ionizing radiation, AlphaScreen SureFire). The format is cell-based. As to conditions: phosphorylated Chk2 in NCI-H460 cells, ionizing radiation 8Gy, 1 hour after test compound treatment; read-out: ATM inhibitory activity. A digest of the protocol:
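In NCI-H460 cells, radiation-triggered Chk2 phosphorylation (8Gy, 1 h) is detected by AlphaScreen SureFire following 1 h compound exposure.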
(In general: In Alpha technology, singlet oxygen from a donor bead excites a nearby acceptor bead.)

The test system of experiment [1] is human non-small cell lung cancer cell line NCI-H460. Nature of the experiment: Cell proliferation inhibition test by sensitivity-enhancing to ionizing radiation (Cell Titer Glo). The experiment is classed as cell-based. As to conditions: concentration in which SER became 2, NCI-H460 cells, ionizing radiation 2 Gy, cultured 120 hour. The procedure: A human non-small cell lung cancer cell line NCI-H460 (ATCC company) was adjusted so as to be 2×10^3 cells/mL in a RPMI-1640 medium containing penicillin/streptomycin and FBS having a final concentration of 10%, and this was seeded by 100 μL per well in 96-well CellBIND® plates (Corning International Inc.). After 24 hours, the medium of cells was replaced with 100 μL of a medium including serially diluted liquid of the test compound or DMSO having a final concentration of 0.1%. 30 minutes after the medium was replaced, half of the plates were irradiated with ionizing radiation 2 Gy (Faxitron Bioptics, LLC, RX-650 type). The cells of the plates irradiated with ionizing radiation and the plates not being irradiated with ionizing radiation were cultured at 37° C. for 120 hour in 5% CO2. After a Cell Titer Glo reaction liquid of an equal volume was added to each well, the amount of luminescence was measured, according to the instruction book of Cell Titer Glo (Promega Corporation). Since the amount of luminescence is proportional to the ATP concentration in cells, the amount of luminescence was used as an indicator of the number of viable cells. Sensitivity-enhancing effects (SER) to ionizing radiation by the test compound was calculated by the following equation. SER=(amount of luminescence of wells including DMSO having a final concentration of 0.1% in the plates irradiated with ionizing radiation×amount of luminescence of wells including a compound in the plates not being irradiated with ionizing radiation)/(amount of luminescence of wells including the test compound in the plates irradiated with ionizing radiation×amount of luminescence of wells including DMSO having a final concentration of 0.1% in the plates not being irradiated with ionizing radiation)
SER at each compound concentration was plotted by nonlinear regression fit (FitModel (205)) by a sigmoidal dose-response equation using XLfit software (IDBS), and the concentration (SER2) in which SER became 2 was calculated.
(In ATP-based viability assays light output follows the ATP content of the culture.)

The values below come from patent US9586951B2 (FUJIFILM Corporation, priority 2013, dated 2017).

T1 sequence (Q13315 whole entry): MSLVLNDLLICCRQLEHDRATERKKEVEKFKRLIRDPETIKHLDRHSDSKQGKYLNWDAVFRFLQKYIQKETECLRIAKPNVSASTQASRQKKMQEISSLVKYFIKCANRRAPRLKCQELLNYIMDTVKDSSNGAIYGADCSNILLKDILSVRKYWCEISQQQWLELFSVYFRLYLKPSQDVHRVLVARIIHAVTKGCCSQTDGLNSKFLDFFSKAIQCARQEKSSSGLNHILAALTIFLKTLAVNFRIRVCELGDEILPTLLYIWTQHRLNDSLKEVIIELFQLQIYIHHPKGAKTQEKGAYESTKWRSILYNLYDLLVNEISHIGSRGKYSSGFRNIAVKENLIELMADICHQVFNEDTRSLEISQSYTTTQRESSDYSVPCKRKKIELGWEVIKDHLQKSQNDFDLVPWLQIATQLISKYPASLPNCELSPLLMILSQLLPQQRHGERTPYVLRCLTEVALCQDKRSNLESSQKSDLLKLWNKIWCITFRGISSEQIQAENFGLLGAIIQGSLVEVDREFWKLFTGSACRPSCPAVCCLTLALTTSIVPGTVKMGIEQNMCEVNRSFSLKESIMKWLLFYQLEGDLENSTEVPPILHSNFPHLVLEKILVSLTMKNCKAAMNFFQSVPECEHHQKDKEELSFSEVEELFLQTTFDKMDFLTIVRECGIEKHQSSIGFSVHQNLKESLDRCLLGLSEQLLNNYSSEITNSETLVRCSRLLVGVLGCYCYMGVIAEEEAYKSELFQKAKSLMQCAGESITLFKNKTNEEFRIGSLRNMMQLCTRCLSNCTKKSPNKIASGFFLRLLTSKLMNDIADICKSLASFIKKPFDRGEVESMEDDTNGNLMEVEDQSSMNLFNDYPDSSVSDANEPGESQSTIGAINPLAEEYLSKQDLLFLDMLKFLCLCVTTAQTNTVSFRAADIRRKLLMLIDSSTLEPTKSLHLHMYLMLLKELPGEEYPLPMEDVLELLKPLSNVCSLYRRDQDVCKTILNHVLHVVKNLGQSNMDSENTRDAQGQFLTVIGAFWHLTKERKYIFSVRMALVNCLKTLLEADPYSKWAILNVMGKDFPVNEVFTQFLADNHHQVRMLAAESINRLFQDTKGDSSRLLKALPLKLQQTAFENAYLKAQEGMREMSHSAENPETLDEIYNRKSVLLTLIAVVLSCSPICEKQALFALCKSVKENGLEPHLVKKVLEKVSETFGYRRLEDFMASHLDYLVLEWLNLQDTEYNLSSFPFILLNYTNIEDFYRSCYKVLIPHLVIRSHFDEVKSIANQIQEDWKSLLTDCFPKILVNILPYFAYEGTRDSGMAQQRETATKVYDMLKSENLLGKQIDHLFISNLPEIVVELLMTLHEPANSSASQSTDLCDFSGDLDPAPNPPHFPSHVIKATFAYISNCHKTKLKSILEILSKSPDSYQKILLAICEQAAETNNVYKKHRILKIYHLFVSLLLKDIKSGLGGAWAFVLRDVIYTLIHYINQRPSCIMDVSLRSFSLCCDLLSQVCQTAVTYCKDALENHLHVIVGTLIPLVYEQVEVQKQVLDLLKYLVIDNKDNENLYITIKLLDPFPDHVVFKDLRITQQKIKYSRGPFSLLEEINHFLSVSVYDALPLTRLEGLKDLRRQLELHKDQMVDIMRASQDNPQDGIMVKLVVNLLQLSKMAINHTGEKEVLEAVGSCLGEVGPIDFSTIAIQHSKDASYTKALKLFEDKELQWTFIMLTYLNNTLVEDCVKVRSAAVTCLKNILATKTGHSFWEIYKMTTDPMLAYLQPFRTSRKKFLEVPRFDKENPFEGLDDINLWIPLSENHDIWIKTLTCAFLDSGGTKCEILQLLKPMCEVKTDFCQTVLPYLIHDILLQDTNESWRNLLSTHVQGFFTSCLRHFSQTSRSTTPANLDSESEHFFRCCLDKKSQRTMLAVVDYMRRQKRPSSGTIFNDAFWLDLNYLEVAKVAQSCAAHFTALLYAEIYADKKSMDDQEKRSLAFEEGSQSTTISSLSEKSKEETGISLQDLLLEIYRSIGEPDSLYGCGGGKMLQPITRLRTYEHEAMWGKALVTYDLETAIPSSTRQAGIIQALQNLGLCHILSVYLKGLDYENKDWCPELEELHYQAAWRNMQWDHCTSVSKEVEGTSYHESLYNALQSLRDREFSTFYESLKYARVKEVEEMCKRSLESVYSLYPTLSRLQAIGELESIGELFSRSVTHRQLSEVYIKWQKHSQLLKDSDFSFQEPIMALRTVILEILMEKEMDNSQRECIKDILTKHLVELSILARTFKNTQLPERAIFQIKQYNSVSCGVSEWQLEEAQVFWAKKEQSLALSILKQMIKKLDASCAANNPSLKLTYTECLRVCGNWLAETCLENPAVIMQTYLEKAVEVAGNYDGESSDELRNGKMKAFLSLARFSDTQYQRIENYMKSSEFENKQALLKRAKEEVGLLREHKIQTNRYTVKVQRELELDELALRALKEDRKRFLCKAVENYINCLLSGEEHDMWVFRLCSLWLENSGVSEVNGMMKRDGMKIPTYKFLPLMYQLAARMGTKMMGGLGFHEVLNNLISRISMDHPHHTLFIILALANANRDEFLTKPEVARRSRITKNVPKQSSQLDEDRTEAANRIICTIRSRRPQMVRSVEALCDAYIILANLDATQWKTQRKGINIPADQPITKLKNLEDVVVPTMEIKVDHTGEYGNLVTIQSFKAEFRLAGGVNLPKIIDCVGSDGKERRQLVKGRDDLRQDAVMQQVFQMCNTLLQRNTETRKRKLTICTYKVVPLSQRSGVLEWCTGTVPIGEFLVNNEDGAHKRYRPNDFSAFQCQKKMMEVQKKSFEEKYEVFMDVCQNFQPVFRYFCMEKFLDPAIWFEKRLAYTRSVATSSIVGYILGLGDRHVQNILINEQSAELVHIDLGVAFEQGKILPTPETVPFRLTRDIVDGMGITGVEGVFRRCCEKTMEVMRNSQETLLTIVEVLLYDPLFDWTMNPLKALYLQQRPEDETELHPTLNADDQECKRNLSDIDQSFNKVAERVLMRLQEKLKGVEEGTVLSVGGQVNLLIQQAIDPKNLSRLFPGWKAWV

As to `CNCC(Nc1ccc2c(c1)Sc1cccc(-c3cc(N4CCOCC4)cc(=O)[nH]3)c1S2)c1cc(C)ccn1` (stereo not drawn) [Example 1-19-3, 6-(7-((2-(Methylamino)-1-(4-methylpyridin-2-yl)ethyl)amino)thianthren-1-yl)-4-morpholinopyridin-2(1H)-one], the IC50 on ATM is under 100 nM. The SER2 (concentration at which the radiation sensitivity-enhancement ratio reaches 2) in experiment [1] (Homo sapiens, NCI-H460, 120 h) lay in the range of 100 to 500 nM.
For the compound `COCCCC(Nc1ccc2c(c1)Sc1cccc(-c3cc(N4CCOCC4)cc(=O)[nH]3)c1S2)c1ccc(C)cn1` (stereo not drawn) [Example 1-12-130, 6-(7-((4-Methoxy-1-(5-methylpyridin-2-yl)butyl)amino)thianthren-1-yl)-4-morpholino pyridin-2(1H)-one], the IC50 at ATM was under 100 nM. For the same compound, the SER2 (concentration at which the radiation sensitivity-enhancement ratio reaches 2) in experiment [1] (Homo sapiens, NCI-H460, 120 h) is 100 to 500 nM.
For `Cc1ccnc(C(C)Nc2ccc3c(c2)Sc2cccc(-c4cc(N5CCOCC5)cc(=O)[nH]4)c2S3)c1` (single isomer, unassigned) [Example 1-12-135-1, 6-(7-((1-(4-methylpyridin-2-yl)ethyl)amino)thianthren-1-yl)-4-morpholinopyridin-2(1H)-one], the IC50 on ATM was under 100 nM. Also, in experiment [1] (Homo sapiens, NCI-H460, 120 h), the SER2 (concentration at which the radiation sensitivity-enhancement ratio reaches 2) was under 100 nM.
On to `Cc1cnc(C(C)Nc2ccc3c(c2)Sc2cccc(-c4cc(N5CCOCC5)cc(=O)[nH]4)c2S3)cn1` (stereo not drawn) [Example 1-12-64, 6-(7-((1-(5-Methylpyrazin-2-yl)ethyl)amino)thianthren-1-yl)-4-morpholino pyridin-2(1H)-one], for which the IC50 on ATM is under 100 nM. Further, the SER2 (concentration at which the radiation sensitivity-enhancement ratio reaches 2) in experiment [1] (Homo sapiens, NCI-H460, 120 h) was under 100 nM.
Take `COCCOCC(Nc1ccc2c(c1)Sc1cccc(-c3cc(N4CCOCC4)cc(=O)[nH]3)c1S2)c1nccc(C)n1` (stereo not drawn) [Example 1-12-97, 6-(7-((2-(2-Methoxyethoxy)-1-(4-methylpyrimidin-2-yl)ethyl)amino)thianthren-1-yl)-4-morpholino pyridin-2(1H)-one]: the IC50 on ATM is under 100 nM. Further, the SER2 (concentration at which the radiation sensitivity-enhancement ratio reaches 2) in experiment [1] (Homo sapiens, NCI-H460, 120 h) is 100 to 500 nM.
As for `Cc1ccc(C(Nc2ccc3c(c2)Sc2cccc(-c4cc(N5CCOCC5)cc(=O)[nH]4)c2S3)C(C)C)nc1` (stereo not drawn) [Example 1-12-121, 6-(7-((2-Methyl-1-(5-methylpyridin-2-yl)propyl)amino)thianthren-1-yl)-4-morpholino pyridin-2(1H)-one], the IC50 on ATM was under 100 nM. In experiment [1] (Homo sapiens, NCI-H460, 120 h), the SER2 (concentration at which the radiation sensitivity-enhancement ratio reaches 2) fell in the range of 100 to 500 nM.
In the case of `Cc1cccc(C(Nc2ccc3c(c2)Sc2cccc(-c4cc(N5CCOCC5)cc(=O)[nH]4)c2S3)C2CCN(C)C2)n1` (single isomer, unassigned) [Example 1-22-7, 6-(7-(((6-Methylpyridin-2-yl)(1-methylpyrrolidin-3-yl)methyl)amino)thianthren-1-yl)-4-morpholino pyridin-2 (1H)-one], the IC50 at ATM is under 100 nM. The SER2 (concentration at which the radiation sensitivity-enhancement ratio reaches 2) in experiment [1] was under 100 nM.
For `COC[C@H](CN1CCOC[C@H]1C)Nc1ccc2c(c1)Sc1cccc(-c3cc(N4CCOCC4)cc(=O)[nH]3)c1S2` [Example 1-46-4, 6-(7-(((S)-1-Methoxy-3-((R)-3-methylmorpholino)propan-2-yl)amino)thianthren-1-yl)-4-morpholino pyridin-2(1H)-one], the IC50 on ATM is under 100 nM. Also, in experiment [1] (Homo sapiens, NCI-H460, 120 h), the SER2 (concentration at which the radiation sensitivity-enhancement ratio reaches 2) lay in the range of 100 to 500 nM.
Regarding `O=c1cc(N2CCOCC2)cc(-c2cccc3c2Sc2ccc(NC4CCN(Cc5cccnc5)CC4)cc2S3)[nH]1` [Example 1-24-17, 4-Morpholino-6-(7-((1-(pyridin-3-ylmethyl)piperidin-4-yl)amino)thianthren-1-yl)pyridin-2 (1H)-one], the IC50 on ATM is under 100 nM. In experiment [1] (Homo sapiens, NCI-H460, 120 h), the SER2 (concentration at which the radiation sensitivity-enhancement ratio reaches 2) is 100 to 500 nM.
In the case of `Cc1cccc(CNc2ccc3c(c2)Sc2cccc(-c4cc(N5CCOCC5)cc(=O)[nH]4)c2O3)n1` [Example 4-8-5, 6-(8-(((6-Methylpyridin-2-yl)methyl)amino)phenoxathiin-4-yl)-4-morpholino pyridin-2(1H)-one], at ATM, the IC50 was under 100 nM. The SER2 (concentration at which the radiation sensitivity-enhancement ratio reaches 2) in experiment [1] (Homo sapiens, NCI-H460, 120 h) fell in the range of 100 to 500 nM.
As to `O=c1cc(N2CCOCC2)cc(-c2cccc3c2Oc2ccc(NCc4cncc(-n5cccc5)c4)cc2C3)[nH]1` [Example 2-2-58, 6-(7-(((5-(1H-Pyrrol-1-yl)pyridin-3-yl)methyl)amino)-9H-xanthen-4-yl)-4-morpholino pyridin-2(1H)-one], the IC50 on ATM is under 100 nM. For the same compound, the SER2 (concentration at which the radiation sensitivity-enhancement ratio reaches 2) in experiment [1] (Homo sapiens, NCI-H460, 120 h) was in the range of 500 to 2000 nM.
With `Cc1cccc(C(C)Nc2ccc3c(c2)Sc2cccc(-c4cc(N5CCOCC5)cc(=O)[nH]4)c2O3)n1` (stereo not drawn) [Example 4-4-30, 6-(8-((1-(6-Methylpyridin-2-yl)ethyl)amino)phenoxathiin-4-yl)-4-morpholino pyridin-2(1H)-one], the IC50 at ATM was under 100 nM. Moreover, the SER2 (concentration at which the radiation sensitivity-enhancement ratio reaches 2) in experiment [1] (Homo sapiens, NCI-H460, 120 h) lay in the range of 100 to 500 nM.
As for `CN1CCCC(Nc2ccc3c(c2)Sc2cccc(-c4cc(N5CCOCC5)cc(=O)[nH]4)c2S3)C1` (stereo not drawn) [Example 1-31-2, 6-(7-((1-Methylpiperidin-3-yl)amino)thianthren-1-yl)-4-morpholinopyridin-2(1H)-one], the IC50 on ATM is under 100 nM. In addition, in experiment [1] (Homo sapiens, NCI-H460, 120 h), the SER2 (concentration at which the radiation sensitivity-enhancement ratio reaches 2) lay in the range of 100 to 500 nM.
Consider “6-(7-(((5-Methyl pyridin-2- yl)(1-methyl pyrrolidin-3-yl) methyl)amino)thianthren-1- yl)-4-morpholino pyridin-2 (1H)-one [Example 1-22-9]”, for which the IC50 on ATM is under 100 nM. The SER2 (concentration at which the radiation sensitivity-enhancement ratio reaches 2) in experiment [1] was under 100 nM.
For the compound `CNc1ccc(CNc2ccc3c(c2)Sc2cccc(-c4cc(N5CCOCC5)cc(=O)[nH]4)c2O3)cn1` [Example 4-4-6, 6-(8-(((6-(Methylamino)pyridin-3-yl)methyl)amino)phenoxathiin-4-yl)-4-morpholino pyridin-2(1H)-one], the IC50 at ATM was under 100 nM. In addition, the SER2 (concentration at which the radiation sensitivity-enhancement ratio reaches 2) in experiment [1] (Homo sapiens, NCI-H460, 120 h) was 500 to 2000 nM.
For `Cc1cnc(C(CCN(C)C)Nc2ccc3c(c2)Sc2cccc(-c4cc(N5CCOCC5)cc(=O)[nH]4)c2S3)cn1` (single isomer, unassigned) [Example 1-22-12-1, 6-(7-((3-(dimethylamino)-1-(5-methylpyrazin-2-yl)propyl)amino)thianthren-1-yl)-4-morpholinopyridin-2(1H)-one], at ATM, the IC50 is under 100 nM. Besides, the SER2 (concentration at which the radiation sensitivity-enhancement ratio reaches 2) in experiment [1] (Homo sapiens, NCI-H460, 120 h) lay in the range of 100 to 500 nM.
For the compound `Cc1ccc(CNc2ccc3c(c2)Sc2cccc(-c4cc(N5CCOCC5)cc(=O)[nH]4)c2S3)nc1` [Example 1-12-13, 6-(7-(((5-Methylpyridin-2-yl)methyl)amino)thianthren-1-yl)-4-morpholino pyridin-2 (1H)-one], the IC50 at ATM was under 100 nM. Moreover, the SER2 (concentration at which the radiation sensitivity-enhancement ratio reaches 2) in experiment [1] (Homo sapiens, NCI-H460, 120 h) is 100 to 500 nM.
Regarding `Cc1ccnc(C(C)Nc2ccc3c(c2)Sc2cccc(-c4cc(N5CCOCC5)cc(=O)[nH]4)c2S3)n1` (single isomer, unassigned) [Example 1-12-144-1, 6-(7-((1-(4-methylpyrimidin-2-yl)ethyl)amino)thianthren-1-yl)-4-morpholinopyridin-2(1H)-one], the IC50 on ATM is under 100 nM. Moreover, the SER2 (concentration at which the radiation sensitivity-enhancement ratio reaches 2) in experiment [1] (Homo sapiens, NCI-H460, 120 h) is under 100 nM.
On to `Cc1cccc(C(C)Nc2ccc3c(c2)Cc2cccc(-c4cc(N5CCOCC5)cc(=O)[nH]4)c2O3)n1` (single isomer, unassigned) [Example 2-14-85-2, 6-(7-((1-(6-methylpyridin-2-yl)ethyl)amino)-9H-xanthen-4-yl)-4-morpholinopyridin-2(1H)-one], for which the IC50 on ATM is under 100 nM. Moreover, the SER2 (concentration at which the radiation sensitivity-enhancement ratio reaches 2) in experiment [1] (Homo sapiens, NCI-H460, 120 h) was under 100 nM.
On to `O=c1cc(N2CCOCC2)cc(-c2cccc3c2Oc2ccc(NCc4cncc(Br)c4)cc2S3)[nH]1` [Example 4-8-22, 6-(8-(((5-Bromopyridin-3-yl)methyl)amino)phenoxathiin-4-yl)-4-morpholino pyridin-2(1H)-one], for which the IC50 at ATM was under 100 nM. Further, the SER2 (concentration at which the radiation sensitivity-enhancement ratio reaches 2) in experiment [1] (Homo sapiens, NCI-H460, 120 h) was 100 to 500 nM.
For `COc1ccnc(C(C)Nc2ccc3c(c2)Cc2cccc(-c4cc(N5CCOCC5)cc(=O)[nH]4)c2O3)c1` (stereo not drawn) [Example 2-14-20, 6-(7-((1-(4-Methoxypyridin-2-yl)ethyl)amino)-9H-xanthen-4-yl)-4-morpholino pyridin-2(1H)-one], the IC50 at ATM is under 100 nM. In addition, the SER2 (concentration at which the radiation sensitivity-enhancement ratio reaches 2) in experiment [1] (Homo sapiens, NCI-H460, 120 h) is under 100 nM.
